#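 GI50 = concentration required for 50% inhibition of growth. TGI: concentration producing complete growth inhibition.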
# Assays:
# Experiment in all cases: NCI tumour cell line growth inhibition, 384-well format
# IGROV1 ovarian = system: IGROV1 ovarian
# NCI-H226 lung = system: NCI-H226 lung
# SF-268 CNS = system: SF-268 CNS
# A549 NSCLC = system: A549 NSCLC
# COLO 205 colon = system: COLO 205 colon
# KM12 colon = system: KM12 colon
# SR leukemia = system: SR leukemia
# HOP-62 NSCLC = system: HOP-62 NSCLC
# SK-MEL-2 melanoma = system: SK-MEL-2 melanoma
# OVCAR-4 ovarian = system: OVCAR-4 ovarian
# HL-60(TB) leukemia = system: HL-60(TB) leukemia
# SK-MEL-28 melanoma = system: SK-MEL-28 melanoma
# SNB-19 CNS = system: SNB-19 CNS
# HT29 colon = system: HT29 colon
# CAKI-1 renal = system: CAKI-1 renal
# MCF7 breast = system: MCF7 breast
# A498 renal = system: A498 renal
# DU-145 prostate = system: DU-145 prostate
# NCI-H522 lung = system: NCI-H522 lung
# HCT-15 colon = system: HCT-15 colon
# HS 578T breast = system: HS 578T breast
# K-562 leukemia = system: K-562 leukemia
# MALME-3M melanoma = system: MALME-3M melanoma
# MDA-MB-231 breast = system: MDA-MB-231 breast
# EKVX NSCLC = system: EKVX NSCLC
# U251 glioblastoma = system: U251 glioblastoma
smiles,measurement,setting,value
CNC(=O)c1cn(C[C@H](F)CCc2ccc(NC(=O)Cc3cc(OC4CC(F)(F)C4)cc(C)n3)nn2)nn1,TGI,IGROV1 ovarian,> 100 µM
same,GI50,NCI-H226 lung,> 100 µM
same,TGI,NCI-H226 lung,> 100 µM
same,GI50,SF-268 CNS,0.407 µM
same,TGI,SF-268 CNS,> 100 µM
same,GI50,A549 NSCLC,0.0278 µM
same,TGI,A549 NSCLC,0.0879 µM
same,GI50,COLO 205 colon,> 100 µM
same,TGI,COLO 205 colon,> 100 µM
same,GI50,KM12 colon,0.946 µM
same,TGI,KM12 colon,> 100 µM
same,GI50,SR leukemia,18.8 µM
same,TGI,SR leukemia,> 100 µM
same,GI50,HOP-62 NSCLC,0.127 µM
same,TGI,HOP-62 NSCLC,0.594 µM
same,GI50,SK-MEL-2 melanoma,0.436 µM
same,TGI,SK-MEL-2 melanoma,> 100 µM
same,GI50,OVCAR-4 ovarian,> 100 µM
same,TGI,OVCAR-4 ovarian,> 100 µM
same,GI50,HL-60(TB) leukemia,> 100 µM
same,TGI,HL-60(TB) leukemia,> 100 µM
same,GI50,SK-MEL-28 melanoma,> 100 µM
same,TGI,SK-MEL-28 melanoma,> 100 µM
same,GI50,SNB-19 CNS,> 100 µM
same,TGI,SNB-19 CNS,> 100 µM
same,GI50,HT29 colon,> 100 µM
same,TGI,HT29 colon,> 100 µM
same,GI50,CAKI-1 renal,0.38 µM
same,TGI,CAKI-1 renal,> 100 µM
same,GI50,MCF7 breast,> 100 µM
same,TGI,MCF7 breast,> 100 µM
same,GI50,A498 renal,0.163 µM
same,TGI,A498 renal,0.492 µM
same,GI50,DU-145 prostate,0.401 µM
same,TGI,DU-145 prostate,7.68 µM
same,GI50,NCI-H522 lung,0.31 µM
same,TGI,NCI-H522 lung,> 100 µM
same,GI50,HCT-15 colon,> 100 µM
same,TGI,HCT-15 colon,> 100 µM
same,GI50,HS 578T breast,0.0721 µM
same,TGI,HS 578T breast,0.533 µM
same,GI50,K-562 leukemia,85.1 µM
same,TGI,K-562 leukemia,> 100 µM
same,GI50,MALME-3M melanoma,> 100 µM
same,TGI,MALME-3M melanoma,> 100 µM
same,GI50,MDA-MB-231 breast,0.389 µM
same,TGI,MDA-MB-231 breast,> 100 µM
same,GI50,EKVX NSCLC,> 100 µM
same,TGI,EKVX NSCLC,> 100 µM
same,GI50,U251 glioblastoma,0.119 µM
same,TGI,U251 glioblastoma,> 100 µM

# — PubChem BioAssay (NCI)
